Source: PubChem BioAssay (NCI)
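These data come from cells grown in 96-well plates and exposed to compound for 48 hours at five concentrations. GI50: concentration for 50% inhibition of growth. The concentration for full growth arrest is given as TGI.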

Tests used:
Test in all cases: NCI tumour cell line growth inhibition, 48 h
ACHN renal = test system: ACHN renal
HT29 colon = test system: HT29 colon
MALME-3M melanoma = test system: MALME-3M melanoma
MDA-MB-435 = test system: MDA-MB-435
NCI-H23 lung = test system: NCI-H23 lung
NCI/ADR-RES ovarian = test system: NCI/ADR-RES ovarian
T-47D breast = test system: T-47D breast

Row | SMILES | TGI (ACHN renal) [µM] | TGI (HT29 colon) [µM] | TGI (MALME-3M melanoma) [µM] | TGI (MDA-MB-435) [µM] | TGI (NCI-H23 lung) [µM] | TGI (NCI/ADR-RES ovarian) [µM] | TGI (T-47D breast) [µM] | GI50 (ACHN renal) [µM] | GI50 (HT29 colon) [µM] | GI50 (MALME-3M melanoma) [µM] | GI50 (MDA-MB-435) [µM] | GI50 (NCI-H23 lung) [µM] | GI50 (NCI/ADR-RES ovarian) [µM] | GI50 (T-47D breast) [µM]
1 | COc1ccc(NCc2c(O)ccc3ccccc23)cc1 | 31.2 | > 100 | 38.8 | > 100 | > 100 | > 100 | 55.1 | – | – | – | – | – | – | –
2 | COc1ccc(Cn2cc3c(c2-c2ccccc2)CCc2cncnc2-3)cc1 | 35.8 | 12.9 | 12.8 | 11.8 | 39.3 | 19.8 | 27 | 11.3 | 3.9 | 3.18 | 2.49 | 10.6 | 3.99 | 3.47
3 | CN(C)CCC(=O)NCc1c2nc3ccccc3nc2n2ccccc12 | > 100 | > 100 | – | > 100 | > 100 | > 100 | > 100 | > 100 | 35.9 | – | 67.8 | 65.6 | 47.2 | > 100
4 | COc1ccc(Cn2c3c(c4c(O)cccc42)C(=O)c2ccccc2-3)cc1 | 16.6 | 38.5 | 22.4 | 30.8 | 22 | 11.3 | 37.9 | 5.14 | 16 | 8.71 | 13.3 | 9.24 | 2.51 | 11
5 | Cc1ccc(C(=O)Nc2ccccc2C(=O)N/N=C(\c2ccccc2)c2ccccn2)cc1 | > 25.9 | > 100 | > 100 | > 100 | > 100 | > 100 | > 100 | 0.166 | 0.25 | 0.752 | 0.534 | 0.723 | 0.2 | 0.493
6 | COc1ccc(-c2cc3nccn3c(Nc3ncccc3C(N)=O)n2)cc1OC | > 100 | > 100 | > 100 | – | > 100 | > 100 | > 100 | 0.445 | 1.19 | > 100 | – | > 39.2 | > 26.6 | > 100
7 | C=C(CN(CCN1CCOCC1)CC(=C)c1ccc(C(=O)Nc2ccccc2N)cc1)c1ccc(C(=O)Nc2ccccc2N)cc1 | 13.3 | – | – | 28.5 | 9.11 | 4.92 | 47.6 | 6.04 | – | – | 8.67 | 2.49 | 1.31 | 8.33
8 | CCOC(=O)c1cn2ncnc(Oc3ccc(NC(=O)NCCN(CC)CC)c(Cl)c3)c2c1C | 5.54 | 5.45 | 3.3 | 3.51 | 26 | 64.5 | 8.72 | 2.31 | 2.26 | 1.7 | 1.87 | 10.4 | 4.26 | 2.77
9 | CC(C)[C@H](O)C(=O)N[C@H]1Cc2ccc3c(c2)[C@]24C5=C(N=C(O5)[C@H](C(C)C)NC1=O)c1nc(Cl)c(o1)-c1c(Cl)[nH]c5cccc(c15)-c1cccc2c1N[C@H]4O3 | 5.3 | 0.183 | 0.0526 | – | 3.82 | 3.22 | > 10 | – | < 0.001 | – | – | < 0.001 | – | –
10 | COc1cccc2cc(N(C)c3nc(C)nc4ccsc34)ccc12 | 13.3 | 11.6 | 18 | – | 18 | 11 | > 100 | < 0.01 | < 0.01 | < 0.0116 | – | < 0.01 | < 0.01 | < 0.01
11 | CCCCCCCCCCC(CN(CC)CC)C(O)c1ccccc1 (stereo not given) | 3.07 | 3.81 | 3.85 | 3.23 | 3.74 | 3.7 | 4.31 | 1.61 | 1.76 | 1.95 | 1.72 | 1.93 | 1.9 | 1.84
12 | O=C(Nn1c2c(sc1=NC1CC1)C(=O)c1ccccc1C2=O)c1cc2ccc1CCc1ccc(cc1)CC2 | 3.03 | 28.7 | 1.75 | 3.23 | 4.32 | 6.77 | 14.4 | 1.39 | 3.32 | 0.57 | 1.76 | 1.31 | 1.93 | 2.49
13 | O=C(O)CCc1nc(-c2ccccc2)c(-c2ccccc2)o1 | > 100 | > 100 | > 100 | > 100 | > 100 | > 100 | > 100 | – | – | – | – | – | – | –
14 | COc1cc(C(=O)/C=C/c2c(-c3cccs3)nc3ccccn23)cc(OC)c1OC | 5.09 | 4.19 | 21.7 | 9.52 | 5.33 | 6.92 | 6.79 | 2.09 | 2.09 | 3.65 | 2.49 | 2.2 | 1.89 | 1.72
15 | Cc1[nH]ccc2cc3nc4ccccc4c3cc12 | 10.6 | 3.55 | 7.94 | 12.7 | 14.5 | 11.9 | 18.9 | 0.963 | 1.16 | 2.27 | 2.89 | 2.55 | 1.8 | 3.62
16 | Oc1oc(-c2ccccc2)nc1/C=C1/C=NN=N1 | > 100 | > 100 | > 100 | > 100 | > 100 | > 100 | > 100 | – | – | – | – | – | – | –
17 | CCN1CCN(c2cc(C)nc(NCc3cc(Nc4ccnc5cc(Cl)ccc45)ccc3F)n2)CC1 | 11.3 | 5.32 | 3.91 | 5.99 | > 100 | > 100 | 4.31 | 2.89 | 0.957 | 1.95 | 2.22 | 5.79 | 5.03 | 1.42
18 | O=C1C(Nc2cccc(O)c2)=C(Sc2ccc(Cl)cc2)C(=O)N1Cc1ccccc1 | 27 | – | 17.8 | 20 | 37.5 | 36.1 | > 100 | 9.33 | – | 3.81 | 6.43 | 6.77 | 7.21 | 29.1
19 | CCN1CCN(c2nc(C)cc(N(CCCNc3ccnc4cc(Cl)ccc34)Cc3ccco3)n2)CC1 | 6.99 | 8.72 | 3.67 | 3.24 | 27 | 19.7 | 5.55 | 2.58 | 2.35 | 1.89 | 1.7 | 9.9 | 4.42 | 1.97

Row | SMILES | TGI (ACHN renal) [µM] | TGI (HT29 colon) [µM] | TGI (MALME-3M melanoma) [µM] | TGI (MDA-MB-435) [µM] | TGI (NCI-H23 lung) [µM] | TGI (NCI/ADR-RES ovarian) [µM] | TGI (T-47D breast) [µM] | GI50 (ACHN renal) [µM] | GI50 (HT29 colon) [µM] | GI50 (MALME-3M melanoma) [µM] | GI50 (MDA-MB-435) [µM] | GI50 (NCI-H23 lung) [µM] | GI50 (NCI/ADR-RES ovarian) [µM] | GI50 (T-47D breast) [µM]
20 | Cc1sc2c(c1C)C(c1ccc(Cl)cc1)=N[C@@H](CC(=O)Nc1ccc(O)cc1)c1nnc(C)n1-2 | 29.9 | 18.9 | 33.4 | 19 | 39.2 | 69.7 | 28.2 | 1.28 | 0.197 | 12.5 | 0.399 | 7.98 | 9.45 | 0.245
21 | CC(C)c1ccc(O)c(O)c(=O)c1 (tested in a mixture with another compound) | 13 | > 100 | 5.44 | > 100 | > 26.3 | > 36.9 | > 68.6 | – | – | – | – | – | – | –
22 | O=C1C(Cl)=C(Nc2ccc3c(c2NC2=C(Cl)C(=O)c4ccccc4C2=O)C(=O)c2ccccc2C3=O)C(=O)c2ccccc21 | 9.05 | 8.54 | 1.72 | 1.04 | 4.1 | – | 5.99 | 2.15 | 3.12 | 0.505 | 0.346 | 1.08 | – | 2.19
23 | CC1(C)CC(O)CCCCCCOc2c(CN)cccc2NC(=O)c2nc(cnc2N)-c2ccc(cc2)S1(=O)=O (stereo not given) | 2.04 | 3.75 | 2.81 | 2.16 | – | 13.4 | 4.15 | 0.0214 | 0.309 | 1.31 | 0.558 | – | 2.83 | 1.67
24 | Cc1cc(Cl)ccc1Nc1nc(C(F)(F)F)ccc1C(=O)N/N=C/c1ccc(N(C)C)cc1 | > 100 | > 100 | – | > 100 | > 100 | > 100 | > 100 | 2.57 | 3.8 | – | 4.02 | 3.92 | 2.21 | 1.2
25 | C#CCOc1cccc(Nc2ncnc3c2ncn3C2CCN(C(=O)CCl)C2)c1 (stereo not given) | 31.8 | 37.4 | 28.1 | 53.5 | 41.3 | > 100 | – | 17.7 | 19.4 | 12.3 | 20.4 | 18.4 | 41.3 | –
26 | C=C(C)C1CCC2(CO)C(O)CC3(C)C(CCC4C5(C)CCC(O)C(C)(C)C5CCC43C)C12 (stereo not given) | 15.4 | 54.7 | 32 | 38.3 | – | 81.5 | 11.3 | – | – | – | – | – | – | –
27 | CCCCCC/C=C\CCCCCCCCCc1c(O)c(OC)cc(O)c1CN(C)C | 22.5 | 16.1 | – | 20 | 23.1 | 37 | 4.2 | – | – | – | – | – | – | –
28 | Cc1ccc2oc(=O)cc(C3c4ccc([nH]4)C(c4cc(=O)oc5ccc(C)cc45)c4ccc([nH]4)C(c4cc(=O)oc5ccc(C)cc45)c4ccc([nH]4)C(c4cc(=O)oc5ccc(C)cc45)c4ccc3[nH]4)c2c1 (stereo not given) | 2.67 | 0.108 | 2.85 | – | 1.58 | 1.1 | 2.99 | 0.0621 | 0.0347 | 0.131 | – | 0.0574 | 0.0313 | 0.0434
29 | c1cc(C2N3CCCN2CC3)ccn1 (stereo not given) | > 100 | > 100 | 80.1 | 89.2 | > 100 | > 100 | > 100 | – | – | – | – | – | – | –
30 | CN(C)CCN1C(=O)c2cccc3c(-c4ccc5ncn(C6CCCCC6)c5c4)ccc(c23)C1=O | 2.36 | 8.11 | 3.93 | 11.1 | 3.82 | 13.4 | 23.4 | 0.539 | 0.938 | 1.9 | 2.71 | 1.35 | 1.14 | 3.16
31 | OCCCCC#Cc1ccccc1C#Cc1cccs1 | 28.8 | 27.6 | 55.4 | 30.8 | 30.9 | 34.5 | 23.2 | 15.5 | 12 | 22.8 | 16.6 | 14.2 | 17.7 | 1.18
32 | C=C(C)C(=O)N1c2ccc(OC)cc2CC1C(=O)OCC (stereo not given) | > 100 | > 100 | – | – | > 100 | > 100 | > 100 | – | – | – | – | – | – | –
33 | CC(C)(C)n1cc(-c2ccnc(NCCCNS(=O)(=O)c3ccc(Cl)cc3)c2)c(-c2cccc(O)c2)n1 | 4.48 | – | 3.41 | 3.41 | 3.48 | 4.62 | 5.51 | 1.97 | – | 1.66 | 1.79 | 1.68 | 1.92 | 1.82
34 | COc1cc2c(cc1-c1c(C)noc1C)ncc1[nH]c(=O)n([C@H](C)c3ccccn3)c12 | > 100 | > 100 | 76.2 | > 100 | > 100 | > 100 | > 100 | 1.2 | 0.244 | 1.05 | 0.474 | 6.22 | 10.9 | 1.22
35 | CCOC(CN(C)C(=O)OCC(Cl)(Cl)Cl)OCC | > 100 | > 100 | – | > 100 | > 100 | > 100 | – | – | – | – | – | – | – | –
36 | COC(=O)C1=C2CO[C@@H]3C[C@H]4C(C)(C)CCC[C@]4(C)C(=CC1)[C@]23C | > 100 | > 100 | 68.5 | 37.5 | > 100 | – | > 100 | 72 | 48.4 | 12.1 | 16.7 | 29.8 | – | 41.5
37 | ClC1=C(Cl)C(Cl)=C(Cl)C1=Cc1ccc(Cl)cc1Cl | – | 6.4 | – | 2.05 | 1.14 | 0.926 | 1.3 | – | 0.33 | – | 0.521 | 0.281 | 0.276 | 0.252
38 | CSc1ccc(C(=O)/C=C/c2ccc(F)cc2)cc1 | > 100 | > 100 | – | 78.3 | > 100 | > 100 | > 100 | > 100 | 19.5 | – | 33.5 | > 100 | > 100 | 96.4
